The values that follow come from ChEMBL document CHEMBL4014283, “Structural insights of SmKDAC8 inhibitors: Targeting Schistosoma epigenetics through a combined structure-based 3D QSAR, in vitro and synthesis strategy” (Bioorg Med Chem, 2017).

Where only a bound is given, the exact number is not on record here.

As a reminder, the inhibition is the share of the control response that was lost under treatment. A low value points to a weak effect. What is called pIC50 is −log10 of the IC50, conventionally taken in molar units. A high value points to a low IC50.

Experiment [1] deals with T1, Histone deacetylase 8 (Schistosoma mansoni) (UniProt A5H660).
T1 sequence (whole entry): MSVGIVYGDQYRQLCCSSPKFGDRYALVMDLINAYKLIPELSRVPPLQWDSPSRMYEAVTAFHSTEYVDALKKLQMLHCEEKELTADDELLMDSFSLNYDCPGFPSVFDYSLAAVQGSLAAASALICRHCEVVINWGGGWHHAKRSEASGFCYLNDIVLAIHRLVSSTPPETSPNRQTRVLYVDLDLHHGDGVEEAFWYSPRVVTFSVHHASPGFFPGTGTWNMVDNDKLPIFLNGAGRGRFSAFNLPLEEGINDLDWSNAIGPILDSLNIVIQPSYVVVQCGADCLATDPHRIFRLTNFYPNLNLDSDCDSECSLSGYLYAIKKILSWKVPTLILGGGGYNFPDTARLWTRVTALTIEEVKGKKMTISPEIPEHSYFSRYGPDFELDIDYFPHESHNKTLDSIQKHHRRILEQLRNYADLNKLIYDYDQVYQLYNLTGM
The experiment in a line: Inhibition of Schistosoma mansoni KDAC8 at 30 uM using (FAM)-labeled peptide as substrate after 60 mins by microfluidic assay.

Another experiment has as its target T2, Histone deacetylase 8 (Schistosoma mansoni, UniProt A5H660).
T2 sequence (A5H660 whole entry): T1 sequence (whole entry)
Nature of the experiment: Inhibition of Schistosoma mansoni KDAC8 using (FAM)-labeled peptide as substrate after 60 mins by microfluidic assay.

The molecule `O=C(CCCCN1C(=O)[C@H](Cc2cncn2C(c2ccccc2)(c2ccccc2)c2ccccc2)N=C(c2ccccc2)c2ccccc21)NO` displayed an inhibition in experiment [1] of 3.81%. For the same molecule, the IC50 at Histone deacetylase 8 (read-out: IC50) is greater than 30 µM.
The matching figures for `COC(=O)CCCCN1C(=O)[C@H](Cc2ccc(OC(C)(C)C)cc2)N=C(c2ccccc2)c2ccccc21`: 0% and greater than 30 µM.
The matching figures for `CC(C)C[C@@H]1N=C(c2ccccc2)c2ccccc2N(CCCCC(=O)O)C1=O`: 0% and greater than 30 µM.
With `O=C(NO)c1cccc(NN(Cc2ccccc2)Cc2ccccc2)c1`, at Histone deacetylase 8 (read-out: pIC50 (converted)), the IC50 was 9.33 µM.
Same read-out and setting: then `COC(=O)[C@H](Cc1ccccc1)NC(=O)CCCCCCCCC(=O)NO`, with 0.794 µM.
As for `CC(/C=C/C(=O)NO)=C\[C@@H](C)C(=O)c1ccc(N(C)C)cc1` [TRICHOSTATIN], the IC50 at Histone deacetylase 8 (read-out: IC50) was 3.62 µM.
With `Cc1c(C)c(S(=O)(=O)NC(=N)NCCC[C@@H]2N=C(c3ccccc3)c3ccccc3NC2=O)c(C)c2c1OC(C)(C)C2`, the inhibition in experiment [1] was 0%. In addition, the IC50 at Histone deacetylase 8 (read-out: IC50) was greater than 30 µM.
The matching figures for `COC(=O)CCCCN1C(=O)[C@H](COC(C)(C)C)N=C(c2ccccc2)c2ccccc21`: 0% and greater than 30 µM.
The matching figures for `O=C(O)CCCCN1C(=O)[C@H](Cc2ccccc2)N=C(c2ccccc2)c2ccccc21`: 0% and greater than 30 µM.
As for `Cn1cc(C2=C(c3cn(CCCCCC(=O)NO)c4ccccc34)C(=O)NC2=O)c2ccccc21`, the IC50 on Histone deacetylase 8 (read-out: pIC50 (converted)) was 1.41 µM.
On the same count and under the same terms, for `CN(C)c1ccc(C(=O)NCc2ccc(C(=O)NO)cc2)cc1` the value was 2.88 µM; for `Cc1ccc(CN(Cc2ccc(C(=O)NO)cc2)S(=O)(=O)c2ccc(F)c(C)c2)cc1`, 5.62 µM.
Same read-out and setting: for `O=C(NO)c1sc2ccccc2c1Cl` the value was 4.37 µM.
On to `N[C@H](Cc1ccc(Cl)cc1Cl)C(=O)N1Cc2ccccc2C1`, for which the IC50 at Histone deacetylase 8 (read-out: IC50) amounted to 29.1 µM.
As to `CN(C)Nc1cccc(C(=O)NO)c1`, the IC50 at Histone deacetylase 8 (read-out: pIC50 (converted)) was 1.58 µM.
Turning to `CN1CCc2c(c3ccccc3n2Cc2ccc(C(=O)NO)cc2)C1` [TUBASTATIN A], the IC50 at Histone deacetylase 8 (read-out: pIC50 (converted)) is 1.48 µM.
As to `O=C(NO)C1CCN(S(=O)(=O)c2ccc3c(c2)CCC3)CC1`, the IC50 at Histone deacetylase 8 (read-out: pIC50 (converted)) is 3.02 µM.
On to `O=C(CCCCCN1C(=O)c2cccc3cccc(c23)C1=O)NO`, for which, on Histone deacetylase 8 (read-out: IC50), the IC50 worked out at 1.77 µM.
Take `O=C(CS)NCCCCCC(=O)Nc1ccccc1`: the IC50 at Histone deacetylase 8 (read-out: pIC50 (converted)) is 50.1 µM.
The same measure, in the same setting: for `CN(C)c1ccc(C(=O)NCCCCCCC(=O)NO)cc1` the value was 3.16 µM.
For `CCC(=O)CCCCC[C@@H]1NC(=O)C2CCCCN2C(=O)[C@H](C(C)CC)NC(=O)[C@H](Cc2cn(OC)c3ccccc23)NC1=O` (stereo partly drawn), on Histone deacetylase 8 (read-out: IC50), the IC50 was 28.8 µM.
For `C[C@H]1Sc2ccc(C(=O)NO)cc2NC1=O`, at Histone deacetylase 8 (read-out: pIC50 (converted)), the IC50 is 1.48 µM.
Same read-out and setting: for `CCCCCC(=O)NO` the value was 2.51 µM.
`COc1ccc(Cn2ccc3ccc(C(=O)NO)cc32)cc1` came in with a negative logarithm of the IC50 (pIC50) on Histone deacetylase 8 of 1.03 to 6.36.
Take `O=C(CCCCCC(=O)N/N=C/c1ccc(-c2ccccc2)cc1)NO`: on Histone deacetylase 8 (read-out: pIC50 (converted)), the IC50 is 0.891 µM.
As to `Cc1[nH]c2ccccc2c1CCNCc1ccc(/C=C/C(=O)NO)cc1` [PANOBINOSTAT], the IC50 at Histone deacetylase 8 (read-out: IC50) came out at 0.45 µM.
With `O=C(CCCCCCC(=O)Nc1cccc(C(=O)O)c1)NO`, the IC50 at Histone deacetylase 8 (read-out: pIC50 (converted)) was 1.91 µM.
Still for that read-out and setting: for `CN(C)c1ccc(C(=O)NCC2CCC(C(=O)NO)CC2)cc1` (stereo not drawn) the value was 12 µM.
In the case of `CC(C)[C@@H]1NC(=O)[C@H]2CCCN2C(=O)[C@@H]2CCCN2C(=O)C[C@H](C(=O)Cc2ccccc2)NC1=O`, the inhibition in experiment [1] amounted to 0%.
On the same count and under the same terms, for `CC(C)[C@@H]1NC(=O)[C@H]2CCCN2C(=O)[C@@H]2CCCN2C(=O)C[C@@H](C(=O)NCCSSCCNC(=O)[C@@H]2CC(=O)N3CCC[C@H]3C(=O)N3CCC[C@@H]3C(=O)N[C@@H](C(C)C)C(=O)N2)NC1=O` the value was 0%; for `COC(=O)CCCNC(=O)[C@@H]1CC(=O)N2CCC[C@@H]2C(=O)N2CCC[C@H]2C(=O)N[C@@H](C(C)C)C(=O)N1`, 0%.
The same measure, in the same setting: then `CC(C)[C@@H]1NC(=O)[C@H]2CCCN2C(=O)[C@@H]2CCCN2C(=O)C[C@H](C(=O)NCCCO)NC1=O`, with 0%.
